Test results: patent US8975245B2, “Anaesthetic formulation” (Drawbridge Pharmaceuticals Pty Ltd, priority 2010, dated 2015)

How the values were obtained:
[1] = test system: rats; assay: Effect of Captisol premedication on the death rate of Althesin
[2] = for time of continuous stirring until it went into solution: 10 mg/ml in 13% w/v sulfobutyl ether β-cyclodextrin in 0.9% saline; for dissolution at a concentration of 10 mg/ml: 13% w/v sulfobutyl ether β-cyclodextrin in 0.9% saline
[3] = SBECD7 (13% solution) premed 5.25 mls/kg 60 s before Althesin @ 16 x AD95 (52.5 mg/kg alphaxalone iv), 10 rats

| Compound | n did not die [1, 3] | n died [1, 3] | effect on mortality caused by alphaxalone as Althesin ([1]; premedication 60 s before 52.5 mg/kg alphaxalone as Althesin) | time of continuous stirring until it went into solution [2] [h] | dissolution at a concentration of 10 mg/ml [2] |
| --- | --- | --- | --- | --- | --- |
| (7) sulfobutyl ether β-cyclodextrin [SBECD7] | 8 | 2 | statistically and clinically significant reduction in the mortality |  |  |
| C[C@]12CC[C@@H](O)C[C@@H]1CC[C@H]1[C@@H]3CC[C@H](C(=O)CO)[C@@]3(C)CC(=O)[C@@H]12 [alphadolone] |  |  |  | 4 | dissolved completely |
| CC(=O)[C@H]1CC[C@H]2[C@@H]3CC[C@@H]4C[C@H](O)CC[C@]4(C)[C@H]3CC[C@]12C [pregnanolone] |  |  |  | 4 | dissolved incompletely |
